Patent publication US9018260B2, “Indanesulfamide derivatives” (Eisai R&D Management Co., Ltd., priority 2012, dated 2015)

What was measured:
[1] = tested on: corneal kindled male C57Bl/6 mice; test: Mouse corneal kindling model; type: in vivo; settings: for Seizure severity score (Average): Racine's scale; for ED50: Mus musculus, po, dosage where 50% of animals showed seizure severity score 2 or less
Text: Male C57Bl/6 mice were stimulated twice daily for 10 days. The electric-stimulations with current intensities of 4.0 mA and duration of 3 s (pulse frequency 50 Hz) were applied via corneally placed saline-soaked copper electrodes.
Seizure severity was ranked according to a modified scoring system of the Racine's scale (Clin. Neurophysiol. 1972:32:281-294): Score 1, mild facial clonus and eye blinking; 2, severe facial clonus, head nodding, chewing; 3, unilateral or alternating forelimb clonus; 4, bilateral forelimb clonus with rearing; 5, bilateral forelimb clonus with rearing and falling; 6, tonic fore- and/or hindlimb extension. The fully kindled animals with the severity score 4 or more were used for evaluation.
Test compounds were dissolved in the vehicle (0.45% methyl cellulose/4.5% cremophor/10% DMSO), then orally (p.o.) or intraperitoneally (i.p.) administered to mice. The vehicle was orally administered as controls.
Electric stimulation was applied at 1 hour after p.o. or 20 minutes after i.p administration. Stimulation parameters were the same as during the kindling process. After electric stimulation, seizure severity was recorded for 30 seconds according to the Racine's scale.
Four to ten animals were used for calculation of average seizure severity score at each dose.

Rota rod test = type: in vivo, mouse; settings: male, ddY, mouse, in vivo, po; dose at which fall off latency shorten by 50% of vehicle control value
Protocol: (§1) Rotarod apparatus (Rota-rod MK-660C, Muromachi-Kikai Co., Ltd.) was used for measurement. The motor was turned on and the rod rotation was continuously accelerated to a rate of 40 rpm over 180 sec.
(§2) Male ddY mice at an age of 5 weeks (Japan SLC) were used. On the experiment day, the mice were pretrained and only the animals able to remain on the rod for at least 60 s were selected for experiment.
(§3) Test compounds were dissolved in the vehicle (0.45% methyl cellulose/4.5% cremophor/10% dimethyl sulfoxide), then orally (p.o.) administered to mice. The vehicle was orally administered as controls. The effects of compounds were studied in groups of six to ten animals.
(§4) Latency for mice to fall off from the rod was measured. The toxic dose at which fall off latency shorten by 50% of vehicle control value (TD50) was calculated.
(§5) Therapeutic index were calculated by dividing the respective TD50 value in rota rod test by the ED50 value determined in the corneal kindling model.

male ddY mice = test: Rota rod test; type: in vivo, mouse; settings: route p.o.; TD50 in rota rod test divided by ED50 in corneal kindling model
Protocol: as §1, §2, §3, §4, §5

[2] = dose 10 mg/kg, p.o., stimulation 1 hour after administration
[3] = dose 25 mg/kg, p.o., stimulation 1 hour after administration, 25 mg/kg
[4] = dose 10 mg/kg, p.o., stimulation 1 hour after administration, 10 mg/kg
[5] = dose 25 mg/kg, p.o., stimulation 1 hour after administration
[6] = dose 50 mg/kg, p.o., stimulation 1 hour after administration
[7] = dose 10 mg/kg, i.p., stimulation 20 minutes after administration
[8] = dose 25 mg/kg, i.p., stimulation 20 minutes after administration

Compound | Seizure severity score (Average) [1, 2] | Seizure severity score (Average) [1, 5] | other results
NS(=O)(=O)N[C@@H]1c2c(Cl)ccc(F)c2C[C@H]1F (relative stereo) [Example 16b, (+)-N-[(1R*,2R*)-7-chloro-2,4-difluoro-2,3-dihydro-1H-inden-1-yl]sulfamide] | 3.75 | – | Seizure severity score (Average) [1, 3]: 0.5
Cc1cc(C#N)cc2c1C(NS(N)(=O)=O)CC2 (single isomer, unassigned) [Example 25a, (+)-N-(5-cyano-7-methyl-2,3-dihydro-1H-inden-1-yl)sulfamide] | – | 0 | Seizure severity score (Average) [1, 4]: 1.75
Cc1cc(Cl)cc2c1C(NS(N)(=O)=O)CC2 (racemic) [Example 30, (±)-N-(5-chloro-7-methyl-2,3-dihydro-1H-inden-1-yl)sulfamide] | 4.25 | 0.25 | –
NS(=O)(=O)NC1c2c(F)cc(Cl)cc2CC1(F)F (single isomer, unassigned; (+)) [Example 10, (+)-N-(5-chloro-2,2,7-trifluoro-2,3-dihydro-1H-inden-1-yl)sulfamide] | 0 | 0 | –
N#Cc1cc(Cl)c2c(c1)CC[C@H]2NS(N)(=O)=O (single isomer, unassigned) [Example 22b, (−)-N-(7-chloro-5-cyano-2,3-dihydro-1H-inden-1-yl)sulfamide] | 3 | – | Seizure severity score (Average) [1, 3]: 0
Cc1ccc(F)c2c1[C@@H](NS(N)(=O)=O)CC2 [Example 28b, (−)-N-(4-fluoro-7-methyl-2,3-dihydro-1H-inden-1-yl)sulfamide] | – | 0 | Seizure severity score (Average) [1, 4]: 3.75
Cc1cc(F)cc2c1[C@H](NS(N)(=O)=O)C(F)(F)C2 [Example 12, N-[(1S)-2,2,5-Trifluoro-7-methyl-2,3-dihydro-1H-inden-1-yl]sulfamide] | 0 | 0 | ED50 [1]: 5.6 mg/kg; TD50 (Rota rod test): 143 mg/kg; Therapeutic index (male ddY mice): 25.5
Cc1cccc2c1C(NS(N)(=O)=O)CC2 (single isomer, unassigned; (+)) [Example 27, (+)-N-(7-methyl-2,3-dihydro-1H-inden-1-yl)sulfamide] | 3 | 0 | –
Cc1cc(C#N)cc2c1C(NS(N)(=O)=O)C(F)(F)C2 (single isomer, unassigned) [Example 4, N-[(1S*)-5-cyano-2,2-difluoro-7-methyl-2,3-dihydro-1H-inden-1-yl]sulfamide] | – | 0 | Seizure severity score (Average) [1, 6]: 0
Cc1ccc(F)c2c1C(NS(N)(=O)=O)C(F)(F)C2 (single isomer, unassigned) [Example 13, N-[(1S*)-2,2,4-trifluoro-7-methyl-2,3-dihydro-1H-inden-1-yl]sulfamide] | 0 | – | –
NS(=O)(=O)NC1c2c(cccc2C(F)F)CC1(F)F (single isomer, unassigned) [Example 14, N-[(1S*)-7-(difluoromethyl)-2,2-difluoro-2,3-dihydro-1H-inden-1-yl]sulfamide] | – | 0 | –
NS(=O)(=O)NC1CCc2ccccc21 (centres unmarked) [Reference compound, reference compound] | 4.67 | 3.17 | ED50 [1]: 40 mg/kg; Seizure severity score (Average) [1, 6]: 1.33; TD50 (Rota rod test): 211 mg/kg; Therapeutic index (male ddY mice): 5.27
NS(=O)(=O)NC1CCc2cc(Cl)cc(F)c21 (single isomer, unassigned; (-)) [Example 23, (−)-N-(5-chloro-7-fluoro-2,3-dihydro-1H-inden-1-yl)sulfamide] | 4.25 | 0 | –
NS(=O)(=O)N[C@H]1c2c(F)ccc(F)c2CC1(F)F [Example 2, N-[(1S)-2,2,4,7-tetrafluoro-2,3-dihydro-1H-inden-1-yl]sulfamide] | 4 | 0 | ED50 [1]: 15.4 mg/kg; Seizure severity score (Average) [1, 6]: 0; TD50 (Rota rod test): > 200 mg/kg; Therapeutic index (male ddY mice): >13.0
Cc1cc(C#N)cc2c1[C@@H](NS(N)(=O)=O)CC2 [Example 25b, (−)-N-(5-cyano-7-methyl-2,3-dihydro-1H-inden-1-yl)sulfamide] | – | 0 | Seizure severity score (Average) [1, 4]: 1
NS(=O)(=O)N[C@@H]1c2c(Cl)ccc(F)c2C[C@H]1F (relative stereo) [Example 16a, (−)-N-[(1R*,2R*)-7-chloro-2,4-difluoro-2,3-dihydro-1H-inden-1-yl]sulfamide] | – | – | Seizure severity score (Average) [1, 3]: 0
Cc1ccc(F)c2c1[C@@H](NS(N)(=O)=O)CC2 (single isomer, unassigned) [Example 28a, (+)-N-(4-fluoro-7-methyl-2,3-dihydro-1H-inden-1-yl)sulfamide] | – | 0 | Seizure severity score (Average) [1, 4]: 4
Cc1cc(F)cc2c1C(NS(N)(=O)=O)CC2 (racemic) [Example 26, (±)-N-(5-fluoro-7-methyl-2,3-dihydro-1H-inden-1-yl)sulfamide] | 4.25 | 0 | –
NS(=O)(=O)N[C@@H]1c2c(Cl)cc(F)cc2C[C@H]1F (relative stereo) [Example 17, (−)-N-[(1R*,2R*)-7-chloro-2,5-difluoro-2,3-dihydro-1H-inden-1-yl]sulfamide] | 2 | 0 | Seizure severity score (Average) [1, 6]: 0
NS(=O)(=O)N[C@H]1CCc2cccc(Cl)c21 (single isomer, unassigned) [Example 24, (+)-N-(7-chloro-2,3-dihydro-1H-inden-1-yl)sulfamide] | 3 | 0 | –
NS(=O)(=O)N[C@@H]1c2c(F)ccc(F)c2C[C@H]1F (relative stereo) [Example 15, N-[(1R*,2R*)-2,4,7-trifluoro-2,3-dihydro-1H-inden-1-yl]sulfamide] | 3 | 0 | –
N#Cc1cc(Cl)c2c(c1)CC[C@H]2NS(N)(=O)=O [Example 22a, (+)-N-(7-chloro-5-cyano-2,3-dihydro-1H-inden-1-yl)sulfamide] | 3 | – | Seizure severity score (Average) [1, 3]: 0.25
NS(=O)(=O)NC1c2c(Cl)ccc(F)c2CC1(F)F (single isomer, unassigned; (-)) [Example 7, (−)-N-(7-chloro-2,2,4-trifluoro-2,3-dihydro-1H-inden-1-yl)sulfamide] | – | – | Seizure severity score (Average) [1, 7]: 3.5; Seizure severity score (Average) [1, 8]: 0.25
CO[C@@H]1Cc2c(Cl)ccc(F)c2[C@H]1NS(N)(=O)=O (relative stereo) [Example 18, (+)-N-[(1R*,2R*)-4-chloro-7-fluoro-2-methoxy-2,3-dihydro-1H-inden-1-yl]sulfamide] | 2 | 0 | –
NS(=O)(=O)NC1CCc2c(Cl)ccc(F)c21 (single isomer, unassigned; (-)) [Example 31, (−)-N-(4-chloro-7-fluoro-2,3-dihydro-1H-inden-1-yl)sulfamide] | 1.5 | 0 | –
NS(=O)(=O)NC1c2c(F)c(F)cc(F)c2CC1(F)F (single isomer, unassigned; (+)) [Example 3, (+)-N-(2,2,4,6,7-pentafluoro-2,3-dihydro-1H-inden-1-yl)sulfamide] | 1.5 | 0 | –
NS(=O)(=O)NC1CCc2c(F)ccc(Cl)c21 (single isomer, unassigned; (+)) [Example 20, (+)-N-(7-chloro-4-fluoro-2,3-dihydro-1H-inden-1-yl)sulfamide] | – | – | Seizure severity score (Average) [1, 7]: 3.25; Seizure severity score (Average) [1, 8]: 0
NS(=O)(=O)NC1c2c(ccc(F)c2Cl)CC1(F)F (single isomer, unassigned; (-)) [Example 9, (−)-N-(7-chloro-2,2,6-trifluoro-2,3-dihydro-1H-inden-1-yl)sulfamide] | – | 0 | Seizure severity score (Average) [1, 6]: 0
